{"source": "patent US20240101656A1", "about": "“PLK1 INHIBITOR IN COMBINATION WITH ANTI-ANGIOGENICS FOR TREATING METASTATIC CANCER” (CARDIFF ONCOLOGY, INC., priority 2022, published 2024)", "origin": "cited, not measured here", "key": {"[1]": {"details": "2nd line"}, "[2]": {"test_system": "HT29 human colon adenocarcinoma xenografts", "details": "combination therapy with irinotecan"}, "[3]": {"details": "in vivo"}, "[4]": {"test_system": "cell lines, both from solid as well as hematologic tumors"}, "[5]": {"test_system": "patients with advanced/metastatic solid tumors"}, "xenograft models of AML": {"test_system": "xenograft models of AML", "details": "in vivo"}, "xenograft tumor": {"test_system": "xenograft tumor", "details": "well tolerated doses, oral administration"}, "[6]": {"test_system": "disseminated models of AML"}, "PLK1": {"biological_target": "PLK1 (Homo sapiens, UniProt P53350)", "sequence (P53350 whole entry)": "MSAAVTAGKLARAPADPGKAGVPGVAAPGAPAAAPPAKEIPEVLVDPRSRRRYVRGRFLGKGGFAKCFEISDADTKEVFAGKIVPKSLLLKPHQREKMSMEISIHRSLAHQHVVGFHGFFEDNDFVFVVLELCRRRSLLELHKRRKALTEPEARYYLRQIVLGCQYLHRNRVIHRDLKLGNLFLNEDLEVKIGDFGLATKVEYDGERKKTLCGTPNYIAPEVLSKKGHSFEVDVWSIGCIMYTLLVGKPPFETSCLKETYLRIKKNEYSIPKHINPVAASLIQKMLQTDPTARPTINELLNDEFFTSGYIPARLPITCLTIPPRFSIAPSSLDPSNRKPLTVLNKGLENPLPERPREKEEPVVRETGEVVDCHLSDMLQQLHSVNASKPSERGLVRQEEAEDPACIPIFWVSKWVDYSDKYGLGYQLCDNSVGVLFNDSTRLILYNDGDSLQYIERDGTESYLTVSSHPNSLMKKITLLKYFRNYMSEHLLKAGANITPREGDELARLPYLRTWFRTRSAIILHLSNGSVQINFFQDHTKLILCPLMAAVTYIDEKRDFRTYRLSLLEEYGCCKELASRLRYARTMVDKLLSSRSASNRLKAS"}, "[7]": {"test_system": "patients with AML who were treatment naïve yet unsuitable for induction therapy", "details": "intravenously, in combination with LDAC"}, "AML": {"test_system": "AML", "details": "in combination with LDAC"}}, "note": "Like-named read-outs stand apart in the source and are kept apart here."}
{"compound": "bev: anti-angiogenics; Bevacizumab (also referred to herein as \"bev\")", "values": [{"measurement": "mOS", "setting": "[1]; bev naïve", "result": 13.9, "unit": "months"}, {"measurement": "mPFS", "setting": "[1]; bev naïve", "result": 6.9, "unit": "months"}, {"measurement": "mOS", "setting": "[1]; prior bev", "result": 12.5, "unit": "months"}, {"measurement": "mPFS", "setting": "[1]; prior bev", "result": 6.7, "unit": "months"}]}
{"compound": "CN1CCN(c2ccc(OC(F)(F)F)c(Nc3ncc4c(n3)-c3c(c(C(N)=O)nn3CCO)CC4)c2)CC1", "note": "[onvansertib, 1-(2-hydroxyethyl)-8-{[5-(4-methylpiperazin-1-yl)-2-(trifluoromethoxy)phenyl]amino}-4,5-dihydro-1H-pyrazolo[4,3-h]quinazoline-3-carboxamide]", "values": [{"measurement": "tumor regression compared to each agent alone", "setting": "[2]", "result": "enhanced tumor regression"}, {"measurement": "oral bioavailability", "setting": "[3]", "result": "good oral bioavailability"}, {"measurement": "activity in proliferation assays", "setting": "[4]", "result": "low nanomolar activity"}, {"measurement": "primary dose-limiting toxicities", "setting": "[5]; in vivo", "result": "neutropenia and thrombocytopenia"}, {"measurement": "recovery from hematologic toxicities", "setting": "[5]; reversible", "result": "≤ 3", "unit": "weeks"}, {"measurement": "tumor growth", "setting": "xenograft models of AML", "result": "inhibited"}, {"measurement": "concentrations inhibiting cell proliferation", "setting": "AML cell lines", "result": "nanomolar concentrations"}, {"measurement": "cell-cycle effect", "setting": "cancer cell lines", "result": "mitotic cell-cycle arrest followed by apoptosis"}, {"measurement": "xenograft tumor growth", "setting": "xenograft tumor", "result": "inhibits xenograft tumor growth"}, {"measurement": "survival of animals", "setting": "[6]; combination therapy with cytarabine", "result": "prolonged survival"}, {"measurement": "cytarabine antitumor activity", "setting": "[6]; in combination with cytarabine", "result": "significantly increased"}, {"measurement": "specificity for PLK1 among a panel of 296 kinases, including other PLK members", "setting": "PLK1", "result": "high specificity"}]}
{"compound": "CC[C@@H]1C(=O)N(C)c2cnc(Nc3ccc(C(=O)N[C@H]4CC[C@H](N5CCN(CC6CC6)CC5)CC4)cc3OC)nc2N1C(C)C", "note": "[volasertib (BI6727)]", "values": [{"measurement": "OS compared with LDAC alone", "setting": "[7]", "result": "significant increase in OS"}, {"measurement": "benefit of the combination", "setting": "AML", "result": "no benefit"}, {"measurement": "risk of severe infections", "setting": "AML", "result": "increased risk of severe infections"}]}
